What was measured:
Type in all cases: in vivo
[1] = test system: Tetranychus urticae (spider mites - adult); assay: Contact test, spider mites - adult (TUa), French bean leaf; details: 72 h, 3 days, read-out: TUA grading of mortality
Outline: (§1)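 Insects placed on host plant or food medium; medium and/or insects treated with aqueous preparations of 100 to 500 ppm Product by weight, made from acetone solutions diluted in water with 0.1% wetting agent. Mortality was then assessed, usually after one to seven days.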

[2] = test system: Tetranychus urticae (spider mites - ova); assay: Contact test, spider mites - ova (TUe), French bean leaf; details: 144 h, 6 days, read-out: TUE grading of mortality
Outline: as §1

Myzus persicae (aphids) = assay: Contact test, aphids (MP), Chinese Cabbage leaf; details: 72 h, 3 days, read-out: MP grading of mortality
Outline: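 Aphids on a host plant and/or the plant itself were treated with 100–500 ppm of product, applied from acetone diluted in water containing 0.1% SYNPERONIC NX wetting agent. Mortality was scored usually one to seven days after treatment.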

[3] = test system: Nilaparvata lugens (brown plant hopper - nymphs); assay: Contact test, brown plant hopper - nymphs (NL), Rice plant; details: 72 h, 3 days, read-out: NL grading of mortality
Outline: as §1

[4] = test system: Musca domestica (houseflies - adults); assay: Knockdown test, houseflies - adults (MD/KD), Cotton wool/sugar; details: 4 hours, read-out: MD/KD grading of knockdown
Outline: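 Product was dissolved in acetone and diluted with water containing 0.1% wetting agent to 100–500 ppm. The flies and/or their food medium were treated with the preparation. Mortality was scored 1–7 days after treatment, with an additional knockdown assessment for houseflies.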

[5] = test system: Musca domestica (houseflies - adults); assay: Contact test, houseflies - adults (MD), Cotton wool/sugar; details: 24 h, 1 day, read-out: MD grading of mortality
Outline: as §1

[6] = test system: Blattella germanica (cockroach nymphs); assay: Residual test, cockroach nymphs (BG), Plastic pot; details: 72 h, 3 days, read-out: BG grading of mortality
Outline: as §1

[7] = test system: Heliothis virescens (tobacco budworm - larvae); assay: Residual test, tobacco budworm - larvae (HV), Cotton leaf; details: 72 h, read-out: HV grading of mortality
Outline: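 Products applied as acetone solutions diluted in water with 0.1% wetting agent, at 100–500 ppm; pests on host plant or food, with pests and/or medium treated. Mortality or knockdown scored 1–7 days after treatment and graded A (80–100%), B (50–79%) or C (<50%).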

[8] = test system: Diabrotica balteata (rootworm larvae); assay: Residual test, rootworm larvae (DB), Filter paper/maize seed; details: 72 h, 3 days, read-out: DB grading of mortality
Outline: as §1

[9] = test system: Meloidogyne incognita (Tomato root knot eelworm - larvae); assay: Residual test, Tomato root knot eelworm - larvae (MI), Semi in-vitro; details: 168 h, application rate is half that recorded, 7 days, read-out: MI grading of mortality; for mortality at 125 µg/mL: rate 250 ppm; for mortality at 250 µg/mL: rate column 500 ppm
[10] = test system: Chilo partellus (Maize stemborer - larvae); assay: Residual test, Maize stemborer - larvae (CP), Oilseed rape; details: 72 h, 3 days, read-out: CP grading of mortality
Procedure: The activity of the Product was determined using a variety of insect pests. The Product was used in the form of liquid preparations containing from 100 to 500 parts per million (ppm) by weight of the Product. The preparations were made by dissolving the Product in acetone and diluting the solutions with water containing 0.1% by weight of a wetting agent sold under the trade name "SYNPERONIC" NX until the liquid preparations contained the required concentration of the Product. "SYNPERONIC" is a Registered Trade Mark.
The test procedure adopted with regard to each pest was basically the same and comprised supporting a number of the pests on a medium which was usually a host plant or a foodstuff on which the pests feed, and treating either or both the pests and the medium with the preparations. The mortality of the pests was then assessed at periods usually varying from one to seven days after the treatment.
The results of the tests are given in Table III for each of the Products, at the rate in parts per million given in the second column as a grading of mortality designated as A, B or C wherein A indicates 80-100% mortality or knockdown (70-100% for Meloidogyne incognita), B indicates 50-79% mortality knockdown or knockdown (50-69% for Meloidogyne incognita) and C indicates less than 50% mortality or knockdown.
In Table III the pest organism used is designated by a letter code and the pests species, the support medium or food, and the type and duration of test is given in Table II.
(Maize stemborer - larvae)

Row | SMILES | mortality at 250 ppm [1] [%] | mortality at 250 ppm [2] [%] | mortality at 250 ppm (Myzus persicae (aphids)) [%] | mortality at 250 ppm [3] [%] | pest or weed control at 250 ppm [4] [%] | mortality at 250 ppm [5] [%] | mortality at 250 ppm [6] [%] | mortality at 250 ppm [7] [%] | mortality at 250 ppm [8] [%] | mortality at 125 µg/mL [9] [%] | mortality at 250 ppm [10] [%] | mortality at 500 ppm [2] [%] | mortality at 500 ppm (Myzus persicae (aphids)) [%] | mortality at 500 ppm [3] [%] | pest or weed control at 500 ppm [4] [%] | mortality at 500 ppm [5] [%] | mortality at 500 ppm [6] [%] | mortality at 500 ppm [8] [%] | mortality at 500 ppm [10] [%] | also measured
1 | CCOc1ccc(C(CCCc2ccc(F)c(Oc3ccccc3)c2)C(F)(F)F)cc1 (racemic) [Compound 5, 1,1,1-Trifluoro-2-(4-ethoxyphenyl)-5-(4-fluoro-3-phenoxyphenyl)pentane] | 80 to 100 | 50 to 79 | 80 to 100 | 80 to 100 | 80 to 100 | 80 to 100 | 80 to 100 | 80 to 100 | 80 to 100 | < 50 | 80 to 100 |  |  |  |  |  |  |  |  | 
2 | CC(C)(C)c1ccc(C(CCCc2cccc(Oc3ccccc3)c2)C(F)(F)F)cc1 (racemic) [Compound 8, 1,1,1-Trifluoro-2-[4-(2-methylprop-2-yl)phenyl]-5-(3-phenoxyphenyl)pentane] | < 50 | < 50 | < 50 | < 50 | < 50 | < 50 | 80 to 100 | 80 to 100 | 80 to 100 | 70 to 100 | 80 to 100 |  |  |  |  |  |  |  |  | 
3 | FC(F)(F)Oc1ccc(C(CCCc2cccc(Oc3ccccc3)c2)C(F)(F)F)cc1 (racemic) [Compound 9, 1,1,1-Trifluoro-2-(4-trifluoromethoxyphenyl)-5-(3-phenoxyphenyl)pentane] | 80 to 100 | 80 to 100 | 80 to 100 | 80 to 100 | 80 to 100 | 80 to 100 | 80 to 100 | 80 to 100 | 80 to 100 | < 50 | 80 to 100 |  |  |  |  |  |  |  |  | 
4 | CCOc1ccc(C(CCCc2cccc(Oc3ccccc3)c2)C(F)(F)C(F)(F)F)cc1 (racemic) [Compound 11, 1,1,1,2,2-Pentafluoro-3-(4-ethoxyphenyl)-6-(3-phenoxyphenyl)hexane] | < 50 | < 50 | < 50 | < 50 | 80 to 100 | < 50 | < 50 | < 50 | < 50 | < 50 | < 50 |  |  |  |  |  |  |  |  | 
5 | FC(F)(F)c1ccc(C(CCCc2cccc(Oc3ccccc3)c2)C(F)(F)F)cc1 (racemic) [Compound 16, 1,1,1-Trifluoro-2-(4-trifluoromethylphenyl)-5-(3-phenoxyphenyl)pentane] | 50 to 79 |  | 80 to 100 | 80 to 100 | 80 to 100 | 80 to 100 | 80 to 100 | 80 to 100 | 80 to 100 | < 50 | 80 to 100 |  |  |  |  |  |  |  |  | 
6 | Fc1ccc(CCCC(c2ccc(OC(F)(F)F)cc2)C(F)(F)F)cc1Oc1ccccc1 (racemic) [Compound 20, 1,1,1-Trifluoro-2-(4-trifluoromethoxyphenyl)-5-(4-fluoro-3-phenoxyphenyl)pentane] |  |  |  |  |  |  |  |  |  |  |  |  |  |  |  |  |  |  |  | mortality at 100 ppm ([1]; 100 ppm): 50 to 79%; mortality at 100 ppm ([2]; 100 ppm): 80 to 100%; mortality at 100 ppm (Myzus persicae (aphids); 100 ppm): 80 to 100%; mortality at 100 ppm ([3]; 100 ppm): 80 to 100%; pest or weed control at 100 ppm ([4]; 100 ppm): 80 to 100%; mortality at 100 ppm ([5]; 100 ppm): 80 to 100%; mortality at 100 ppm ([6]; 100 ppm): 80 to 100%; mortality at 100 ppm [7]: 80 to 100%; mortality at 100 ppm ([8]; 100 ppm): 80 to 100%; mortality at 50 µg/mL ([9]; rate column 100 ppm): < 50%; mortality at 100 ppm ([10]; 100 ppm): 80 to 100%
7 | FC(F)(F)C(CCCc1cccc(Oc2ccccc2)c1)c1ccc(Cl)cc1 (racemic) [Compound 38, 1,1,1-Trifluoro-2-(4-chlorophenyl)-5-(3-phenoxyphenyl)pentane] |  |  |  |  |  |  |  |  |  |  |  | < 50 | < 50 | 80 to 100 | 50 to 79 | 50 to 79 | 50 to 79 | 80 to 100 | 80 to 100 | mortality at 500 ppm [1]: 80 to 100%
8 | CCOc1ccc(C(=CCCc2cccc(Oc3ccccc3)c2)C(F)(F)F)cc1 [Compound 1, E,Z-2-(4-ethoxyphenyl)-5-(3-phenoxyphenyl)-1,1,1-trifluoropent-2-ene] |  |  |  |  |  |  |  |  |  |  |  |  | 80 to 100 | 80 to 100 | 80 to 100 | 80 to 100 | 80 to 100 | 80 to 100 | 80 to 100 | mortality at 500 ppm [7]: 80 to 100%; mortality at 250 µg/mL [9]: 50 to 69%
9 | CCOc1ccc(/C(=C\CCc2cccc(Oc3ccccc3)c2)C(F)(F)F)cc1 [Compound 3, E-1,1,1-trifluoro-2-(4-ethoxyphenyl)-5-(3-phenoxyphenyl)pent-2-ene] |  |  |  |  |  |  |  |  |  |  |  | < 50 | 80 to 100 | < 50 | 80 to 100 | 80 to 100 | 80 to 100 | 80 to 100 | 80 to 100 | mortality at 500 ppm [1]: 50 to 79%; mortality at 500 ppm [7]: 80 to 100%; mortality at 250 µg/mL [9]: < 50%
10 | CCOc1ccc(/C(=C/CCc2cccc(Oc3ccccc3)c2)C(F)(F)F)cc1 [Compound 4, Z-1,1,1-trifluoro-2-(4-ethoxyphenyl)-5-(3-phenoxyphenyl)pent-2-ene] |  |  |  |  |  |  |  |  |  |  |  | < 50 | < 50 | < 50 | < 50 | < 50 | < 50 | < 50 | 80 to 100 | mortality at 500 ppm [1]: < 50%; mortality at 500 ppm [7]: 80 to 100%; mortality at 250 µg/mL [9]: < 50%
11 | CC(C)(C)c1ccc(C(=CCCc2cccc(Oc3ccccc3)c2)C(F)(F)F)cc1 [Compound 6, 2-[4-(2-methylprop-2-yl)phenyl]-5-(3-phenoxyphenyl)-1,1,1-trifluoropent-2-ene] | < 50 | < 50 | < 50 | < 50 | < 50 | < 50 | 80 to 100 | < 50 | < 50 | 70 to 100 | 80 to 100 |  |  |  |  |  |  |  |  | 
12 | FC(F)(F)C(=CCCc1cccc(Oc2ccccc2)c1)c1ccc(Br)cc1 [Compound 39, 1,1,1-Trifluoro-2-(4-bromophenyl)-5-(3-phenoxyphenyl)-pent-2-ene] |  |  |  |  |  |  |  |  |  |  |  | < 50 | < 50 | < 50 | < 50 | < 50 | 50 to 79 | < 50 | 80 to 100 | 
